The target of this assay is T1, NS3 genotype 1b protease (Hepatitis C virus genotype 1b, UniProt Q9WMX2, E1202G).
T1 construct: Purified NS3 protease domain (amino acids 1-181) of the genotype 1b and 3a virus were generated as above; K3 hexahistidine tag (N); rTEV protease cleavage site (N); made in house; host or cells: E. coli BL21AI, pET28 vector p28-N6H-Tev-NS3(181)1b
The assay can be described thus: Ki determination, NS3 protease genotype 1b (fluorogenic depsipeptide substrate). Format: biochemical. A digest of the protocol:
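The His-tagged HCV NS3 protease domain (residues 1-181, genotype 1b con-1) was expressed in E. coli, and 50 pM enzyme with 20 μM NS4A peptide was used. Inhibitor (100 nM to 5 pM, 3-fold steps) was pre-incubated 1 h at room temperature in 50 mM HEPES, 40% glycerol, 0.05% Triton X-100, 10 mM DTT, 10% DMSO. The reaction was started with 4 μM fluorogenic substrate, and fluorescence (ex 340/em 490 nm) was read every 30 s between 90 and 120 min. Ki^app came from fitting rates with the Morrison equation.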

What is called Ki is the equilibrium dissociation constant of an inhibitor or competing ligand from its target. A high value points to a looser hold on the target.

With `COc1ccc2nc3c(nc2c1)O[C@H]1CN(C(=O)[C@H](C(C)(C)C)NC(=O)O[C@@H]2C[C@H]2CCCCC3F)[C@H](C(=O)N[C@]2(C(=O)NS(=O)(=O)C3(C)CC3)C[C@H]2C(F)F)[C@@H]1C` (stereo partly drawn) [Example 47, (1aR,5S,8S,9S,10R,22aR)-5-tert-butyl-N-[(1R,2R)-2-(difluoromethyl)-1-{[(1-methylcyclopropyl)sulfonyl]carbamoyl}cyclopropyl]-18-fluoro-14-methoxy-9-methyl-3,6-dioxo-1,1a,3,4,5,6,9,10,18,19,20,21,22,22a-tetradecahydro-8H-7,10-methanocyclopropa[18,19][1,10,3,6]dioxadiazacyclononadecino[11,12-b]quinoxaline-8-carboxamide], the Ki came to 0.07 nM.

Source of the values: patent publication US20150175655A1 (priority 2012, published 2015).
